pIC50: −log10 of the molar value.
Columns and labels:
[1] = Cytotoxicity against LPS-stimulated mouse BV2 cells assessed as cell survival after 24 hrs by MTT assay relative to control; format: cell-based, BV-2; set-up: concentration or dose not given beside the values; conditions: read-out: Survival
[2] = Cytotoxicity against mouse BV2 cells assessed as cell survival after 24 hrs by MTT assay relative to control; format: cell-based, BV-2; set-up: concentration or dose not given beside the values; conditions: read-out: Survival
[3] = system: BV-2; assay: Anti-inflammatory activity in mouse BV2 cells assessed as reduction in LPS-induced NO production pre-treated before LPS stimulation for 24 hrs by Griess reagent-based assay; format: functional, cell-based

Molecule `O=C1C=CC2(C=C1)OCCC(=O)N2c1ccccc1` has a viability at 24 h [1] of 79.8%, a viability at 24 h [2] of 102% and a pIC50 [3] of 5.89.

`O=C1C=CC2(C=C1)OCC(Cc1ccc(Br)cc1)C(=O)N2c1ccccc1` (stereo unspecified) showed a viability at 24 h [1] of 72%, a viability at 24 h [2] of 82.7% and a pIC50 [3] of 5.86.

`CC1COC2(C=CC(=O)C=C2)N(c2ccccc2)C1=O` (stereo unspecified) gave a viability at 24 h [1] of 72.8%, a viability at 24 h [2] of 86.1% and a pIC50 [3] of 5.91.

Work on `Cc1cc(C)cc(CC2COC3(C=CC(=O)C=C3)N(c3ccccc3)C2=O)c1` (stereo unspecified) yielded a viability at 24 h [1] of 78%, a viability at 24 h [2] of 94.2% and a pIC50 [3] of 5.74.

In the case of `C=C(C)CC1COC2(C=CC(=O)C=C2)N(c2ccccc2)C1=O` (stereo unspecified), the viability at 24 h [1] was 80.1%, the viability at 24 h [2] was 91.4% and the pIC50 [3] was 6.35.

Molecule `CNC(=N)NCCC[C@H](N)C(=O)O` [TILARGININE] has a viability at 24 h [1] of 60.5% and a pIC50 [3] of 4.79.

`O=C1C=CC2(C=C1)OCC(Cc1ccccc1CS(=O)(=O)c1ccccc1)C(=O)N2c1ccccc1` (stereo unspecified) showed a viability at 24 h [1] of 84.3%, a viability at 24 h [2] of 97.5% and a pIC50 [3] of 6.01.

`O=C1C=CC2(C=C1)OCC(Cc1ccc(F)cc1)C(=O)N2c1ccccc1` (stereo unspecified) showed a viability at 24 h [1] of 85.2%, a viability at 24 h [2] of 82.9% and a pIC50 [3] of 6.40.

`O=C1C=CC2(C=C1)OCC(Cc1ccc(Cl)cc1)C(=O)N2c1ccccc1` (stereo unspecified) gave a viability at 24 h [1] of 79%, a viability at 24 h [2] of 91% and a pIC50 [3] of 6.27.

For `C=CCCC1COC2(C=CC(=O)C=C2)N(c2ccccc2)C1=O` (stereo unspecified), the viability at 24 h [1] was 80.4%, the viability at 24 h [2] was 89% and the pIC50 [3] was 6.14.

`O=C1C=CC2(C=C1)OCC(Cc1cc(C(F)(F)F)ccc1Cl)C(=O)N2c1ccccc1` (stereo unspecified) showed a viability at 24 h [1] of 64.4%, a viability at 24 h [2] of 70.5% and a pIC50 [3] of 6.11.

Work on `O=C1C=CC2(C=C1)OCC(Cc1ccc(C(F)(F)F)cc1)C(=O)N2c1ccccc1` (stereo unspecified) yielded a viability at 24 h [1] of 84.1%, a viability at 24 h [2] of 87.1% and a pIC50 [3] of 5.78.

`O=C1C=CC2(C=C1)OCC(Cc1ccc(C(F)(F)F)cc1[N+](=O)[O-])C(=O)N2c1ccccc1` (stereo unspecified) gave a pIC50 [3] of 6.01.

With `O=C1C=CC2(C=C1)OCC(Cc1ccc([N+](=O)[O-])cc1)C(=O)N2c1ccccc1` (stereo unspecified) the viability at 24 h [1] was 82.7%, the viability at 24 h [2] was 95.5% and the pIC50 [3] was 6.37.

With `C=CCC1COC2(C=CC(=O)C=C2)N(c2ccccc2)C1=O` (stereo unspecified) the viability at 24 h [1] was 84.6%, the viability at 24 h [2] was 89.7% and the pIC50 [3] was 5.99.

For `O=C1C=CC2(C=C1)OCC(Cc1c(F)cccc1C(F)(F)F)C(=O)N2c1ccccc1` (stereo unspecified), the viability at 24 h [1] was 71.1%, the viability at 24 h [2] was 84.4% and the pIC50 [3] was 6.22.

`O=C1C=CC2(C=C1)OCC(Cc1ccccc1)C(=O)N2c1ccccc1` (stereo unspecified) showed a viability at 24 h [1] of 76.1%, a viability at 24 h [2] of 82.1% and a pIC50 [3] of 6.24.

Work on `O=C1C=CC2(C=C1)OCC(Cc1cccc(Br)c1)C(=O)N2c1ccccc1` (stereo unspecified) yielded a viability at 24 h [1] of 74%, a viability at 24 h [2] of 96% and a pIC50 [3] of 6.27.
